Test results reported in US10800791B2, “Triazole ACC inhibitors and uses thereof” (Gilead Apollo, LLC, priority 2015, dated 2020).
Converted amounts (≈) assume the structure as drawn. Read-outs that look alike come from different tables or passages of the source.

Key:
[1] = system: Fusarium virguliforme (Fv); test: Growth inhibition assay of fungal pathogens, Fv; assay type: cell-based; details: 48 h, growth inhibition at 48 hours vs 2% DMSO control, read-out: Concentration at 90% Inhibition Fv
Procedure: (§1) Compounds of the present invention were evaluated in a growth inhibition assay to determine the ability to control the growth of fungal pathogens, such as Botrtyis cinerea (Bc), Collectotrichum graminicola (Cg), Diplodia maydis (Dm), Fusarium moniliforme (Fm), Fusarium virguliforme (Fv), Phytophthora capsici (Pc), Rhizoctonia solani (Rs), and Septoria tritici (St).
(§2) Compounds to be tested were dissolved in DMSO at 2.5 mg/ml to produce compound stock solutions (“stocks”). Stocks were diluted with DMSO by a five-fold dilution in a 96-well stock plate, and two sets of final concentrations of 50, 10, and 2 ppm or 2, 0.4, and 0.08 ppm were obtained in vitro. A set of positive controls was also prepared, with various concentrations of Soraphen (2, 0.4, and 0.08 ppm), Metalaxyl (1.1, 0.22, and 0.04 ppm), and Metconazole (2, 0.4, and 0.08 ppm or 0.2, 0.04, and 0.008 ppm) after the five-fold dilutions. Negative controls on each plate included 2% DMSO, water, and a blank (media+2% DMSO).
(§3) Fungal spores were isolated from previously sub-cultured plates of Botrtyis cinerea (Bc), Collectotrichum graminicola (Cg), Diplodia maydis (Dm), Fusarium moniliforme (Fm), Fusarium virguliforme (Fv), Phytophthora capsici (Pc), and Septoria tritici (St). The isolated spores were diluted to individual concentrations with a 17% V8 liquid media. For Rhizoctonia solani (Rs) and Pythium irregulare, 1.5 mm mycelial plugs were used in place of spores and/4 Potato Dextrose Broth (PDB) was used for dilution. The spore concentrations and plug sizes were based on growth curves generated at 48 hours for each pathogen.
(§4) In a second 96-well plate, the spores or mycelial plugs, media, diluted compound solutions, and controls were combined. Once the compound was added, a true final concentration of compound in each well was measured by an OD600 reading, which adjusted for any compound precipitation that might have occurred in the well. Plate readings were repeated at both 24 and 48 hours. The blank negative control was used as a background subtraction. Additional visual ratings were performed at both 24 and 48 hours for checking on precipitation and confirming efficacy. Visual and OD600 ratings of the compounds at 48 hours were compared to the 2% DMSO negative control, and the percent of pathogen growth inhibition was determined based on those values.

[2] = system: Fusarium moniliforme (Fm); test: Growth inhibition assay of fungal pathogens, Fm; assay type: cell-based; details: Fusarium verticillioides, 48 h, Fusarium moniliforme; growth inhibition at 48 hours vs 2% DMSO control; read-out: Concentration at 90% Inhibition Fm
Procedure: as §1, §2, §3, §4

[3] = system: Phytophthora capsici (Pc); test: Growth inhibition assay of fungal pathogens, Pc; assay type: cell-based; details: 48 h, growth inhibition at 48 hours vs 2% DMSO control, read-out: Concentration at 90% Inhibition Pc
Procedure: as §1, §2, §3, §4

Botrtyis cinerea (Bc) = test: Growth inhibition assay of fungal pathogens, Bc; assay type: cell-based; details: 48 h, Botrtyis cinerea; growth inhibition at 48 hours vs 2% DMSO control; read-out: Concentration at 90% Inhibition Bc
Procedure: as §1, §2, §3, §4

C. krusei = test: Antifungal Activity Assay (broth microtiter MIC), C. krusei; assay type: cell-based, Candida krusei; details: Pichia kudriavzevii, ATCC6258, 48 h, ATCC 6258, 3 replicates, MIC recorded at 48 h, read-out: MIC, C. krusei ATCC 6258
Summary of the method: (§5)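 MICs were scored by eye at 48 h relative to the growth control. Plates followed CLSI M27-A3, with Candida suspensions in RPMI 1640+MOPS giving a final 2.5×10^3 CFU/mL; the colonies came from Sabouraud agar grown overnight at 35 °C.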

Rhizoctonia solani (Rs) = test: Growth inhibition assay of fungal pathogens, Rs; assay type: cell-based; details: 48 h
Procedure: as §1, §2, §3, §4

C. albicans = test: Antifungal Activity Assay (broth microtiter MIC), C. albicans; assay type: cell-based, Candida albicans; details: Candida albicans, ATCC90028, 48 h, ATCC 90028, 3 replicates, MIC recorded at 48 h, read-out: MIC, C. albicans ATCC 90028
Summary of the method: as §5

human (hACC2) = human (hACC2) (Homo sapiens, UniProt O00763); test: In vitro ACC inhibition assay (ADP-Glo), hACC2; assay type: biochemical; details: 5 nM ACC2, 20 μM ATP, 20 μM acetyl-CoA
Chain of human (hACC2) (O00763 whole entry): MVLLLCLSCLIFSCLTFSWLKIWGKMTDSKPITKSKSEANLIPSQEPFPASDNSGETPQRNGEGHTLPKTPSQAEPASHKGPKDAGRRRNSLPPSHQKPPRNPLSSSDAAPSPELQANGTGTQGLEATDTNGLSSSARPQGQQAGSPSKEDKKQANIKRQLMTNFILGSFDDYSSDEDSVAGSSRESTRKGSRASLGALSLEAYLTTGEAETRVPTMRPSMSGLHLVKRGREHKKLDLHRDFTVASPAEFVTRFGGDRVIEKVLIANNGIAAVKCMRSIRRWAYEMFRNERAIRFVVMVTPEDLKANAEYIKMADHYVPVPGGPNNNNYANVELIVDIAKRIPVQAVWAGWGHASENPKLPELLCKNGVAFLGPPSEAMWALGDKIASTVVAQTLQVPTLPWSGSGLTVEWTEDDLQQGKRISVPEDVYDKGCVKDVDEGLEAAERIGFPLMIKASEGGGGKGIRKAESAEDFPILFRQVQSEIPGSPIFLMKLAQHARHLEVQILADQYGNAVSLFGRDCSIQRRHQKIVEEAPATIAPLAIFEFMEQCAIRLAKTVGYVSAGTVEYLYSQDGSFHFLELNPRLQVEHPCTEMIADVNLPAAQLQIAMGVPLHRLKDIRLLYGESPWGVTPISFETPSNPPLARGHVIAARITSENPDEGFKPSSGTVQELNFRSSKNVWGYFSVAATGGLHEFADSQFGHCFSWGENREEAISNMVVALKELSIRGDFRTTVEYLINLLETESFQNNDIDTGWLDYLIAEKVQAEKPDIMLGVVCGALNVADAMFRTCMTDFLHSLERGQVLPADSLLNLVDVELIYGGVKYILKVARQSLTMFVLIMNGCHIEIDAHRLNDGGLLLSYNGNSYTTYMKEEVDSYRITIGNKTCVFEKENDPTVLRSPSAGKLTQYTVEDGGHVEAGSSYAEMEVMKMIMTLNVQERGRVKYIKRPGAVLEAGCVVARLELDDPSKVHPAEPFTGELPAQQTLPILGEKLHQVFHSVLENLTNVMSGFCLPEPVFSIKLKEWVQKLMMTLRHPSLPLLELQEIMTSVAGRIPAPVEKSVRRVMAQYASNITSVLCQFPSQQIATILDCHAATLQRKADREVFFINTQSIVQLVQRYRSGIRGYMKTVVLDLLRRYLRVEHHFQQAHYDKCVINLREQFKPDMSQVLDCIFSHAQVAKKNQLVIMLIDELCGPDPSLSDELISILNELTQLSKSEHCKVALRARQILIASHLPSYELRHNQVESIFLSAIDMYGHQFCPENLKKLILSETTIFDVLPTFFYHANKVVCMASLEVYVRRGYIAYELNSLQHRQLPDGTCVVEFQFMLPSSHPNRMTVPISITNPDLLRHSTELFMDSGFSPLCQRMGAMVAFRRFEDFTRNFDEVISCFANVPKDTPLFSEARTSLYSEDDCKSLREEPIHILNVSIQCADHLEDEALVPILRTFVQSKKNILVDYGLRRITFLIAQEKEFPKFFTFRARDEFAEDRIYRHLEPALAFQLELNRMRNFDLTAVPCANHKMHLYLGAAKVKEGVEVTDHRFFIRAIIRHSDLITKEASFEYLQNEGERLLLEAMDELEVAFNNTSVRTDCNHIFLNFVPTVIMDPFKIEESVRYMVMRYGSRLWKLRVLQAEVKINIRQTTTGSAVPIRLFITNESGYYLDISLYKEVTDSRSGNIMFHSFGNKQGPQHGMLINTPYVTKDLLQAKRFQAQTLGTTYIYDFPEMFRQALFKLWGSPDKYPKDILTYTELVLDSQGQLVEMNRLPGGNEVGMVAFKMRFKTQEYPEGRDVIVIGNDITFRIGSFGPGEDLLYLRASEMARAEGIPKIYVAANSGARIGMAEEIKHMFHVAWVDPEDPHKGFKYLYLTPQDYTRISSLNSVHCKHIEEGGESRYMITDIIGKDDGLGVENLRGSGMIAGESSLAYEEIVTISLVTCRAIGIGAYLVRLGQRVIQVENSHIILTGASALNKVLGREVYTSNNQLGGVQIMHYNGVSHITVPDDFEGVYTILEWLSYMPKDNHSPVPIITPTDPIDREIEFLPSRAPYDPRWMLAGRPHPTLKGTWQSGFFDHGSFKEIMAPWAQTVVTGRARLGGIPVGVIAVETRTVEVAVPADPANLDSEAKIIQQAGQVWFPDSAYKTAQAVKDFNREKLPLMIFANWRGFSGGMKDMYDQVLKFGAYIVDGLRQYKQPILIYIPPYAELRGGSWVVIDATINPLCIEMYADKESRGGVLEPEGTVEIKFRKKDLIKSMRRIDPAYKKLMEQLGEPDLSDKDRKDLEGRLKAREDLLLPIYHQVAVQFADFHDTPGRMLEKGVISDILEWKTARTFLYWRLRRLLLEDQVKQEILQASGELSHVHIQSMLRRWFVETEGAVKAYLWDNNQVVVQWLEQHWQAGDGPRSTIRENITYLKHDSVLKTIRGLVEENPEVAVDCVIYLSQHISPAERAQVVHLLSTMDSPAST
Procedure: The detailed procedure is as follows. […] 10 μL ADP glo reagent was added. […] 20 μL kinase detection reagent was added.

Septoria tritici (St) = test: Growth inhibition assay of fungal pathogens, St; assay type: cell-based; details: Zymoseptoria tritici, 48 h, Septoria tritici; growth inhibition at 48 hours vs 2% DMSO control; read-out: Concentration at 90% Inhibition St
Procedure: as §1, §2, §3, §4

fungal (fACC2) = fungal (fACC2) (UniProt Q00955); details: read-out: fACC2 (in vitro ACC2 Inhibition Assay, IC50); Table 2b, additional results; ADP-Glo, 5 nM ACC2, 20 μM ATP, 20 μM acetyl-CoA
Chain of fungal (fACC2) (Q00955 whole entry): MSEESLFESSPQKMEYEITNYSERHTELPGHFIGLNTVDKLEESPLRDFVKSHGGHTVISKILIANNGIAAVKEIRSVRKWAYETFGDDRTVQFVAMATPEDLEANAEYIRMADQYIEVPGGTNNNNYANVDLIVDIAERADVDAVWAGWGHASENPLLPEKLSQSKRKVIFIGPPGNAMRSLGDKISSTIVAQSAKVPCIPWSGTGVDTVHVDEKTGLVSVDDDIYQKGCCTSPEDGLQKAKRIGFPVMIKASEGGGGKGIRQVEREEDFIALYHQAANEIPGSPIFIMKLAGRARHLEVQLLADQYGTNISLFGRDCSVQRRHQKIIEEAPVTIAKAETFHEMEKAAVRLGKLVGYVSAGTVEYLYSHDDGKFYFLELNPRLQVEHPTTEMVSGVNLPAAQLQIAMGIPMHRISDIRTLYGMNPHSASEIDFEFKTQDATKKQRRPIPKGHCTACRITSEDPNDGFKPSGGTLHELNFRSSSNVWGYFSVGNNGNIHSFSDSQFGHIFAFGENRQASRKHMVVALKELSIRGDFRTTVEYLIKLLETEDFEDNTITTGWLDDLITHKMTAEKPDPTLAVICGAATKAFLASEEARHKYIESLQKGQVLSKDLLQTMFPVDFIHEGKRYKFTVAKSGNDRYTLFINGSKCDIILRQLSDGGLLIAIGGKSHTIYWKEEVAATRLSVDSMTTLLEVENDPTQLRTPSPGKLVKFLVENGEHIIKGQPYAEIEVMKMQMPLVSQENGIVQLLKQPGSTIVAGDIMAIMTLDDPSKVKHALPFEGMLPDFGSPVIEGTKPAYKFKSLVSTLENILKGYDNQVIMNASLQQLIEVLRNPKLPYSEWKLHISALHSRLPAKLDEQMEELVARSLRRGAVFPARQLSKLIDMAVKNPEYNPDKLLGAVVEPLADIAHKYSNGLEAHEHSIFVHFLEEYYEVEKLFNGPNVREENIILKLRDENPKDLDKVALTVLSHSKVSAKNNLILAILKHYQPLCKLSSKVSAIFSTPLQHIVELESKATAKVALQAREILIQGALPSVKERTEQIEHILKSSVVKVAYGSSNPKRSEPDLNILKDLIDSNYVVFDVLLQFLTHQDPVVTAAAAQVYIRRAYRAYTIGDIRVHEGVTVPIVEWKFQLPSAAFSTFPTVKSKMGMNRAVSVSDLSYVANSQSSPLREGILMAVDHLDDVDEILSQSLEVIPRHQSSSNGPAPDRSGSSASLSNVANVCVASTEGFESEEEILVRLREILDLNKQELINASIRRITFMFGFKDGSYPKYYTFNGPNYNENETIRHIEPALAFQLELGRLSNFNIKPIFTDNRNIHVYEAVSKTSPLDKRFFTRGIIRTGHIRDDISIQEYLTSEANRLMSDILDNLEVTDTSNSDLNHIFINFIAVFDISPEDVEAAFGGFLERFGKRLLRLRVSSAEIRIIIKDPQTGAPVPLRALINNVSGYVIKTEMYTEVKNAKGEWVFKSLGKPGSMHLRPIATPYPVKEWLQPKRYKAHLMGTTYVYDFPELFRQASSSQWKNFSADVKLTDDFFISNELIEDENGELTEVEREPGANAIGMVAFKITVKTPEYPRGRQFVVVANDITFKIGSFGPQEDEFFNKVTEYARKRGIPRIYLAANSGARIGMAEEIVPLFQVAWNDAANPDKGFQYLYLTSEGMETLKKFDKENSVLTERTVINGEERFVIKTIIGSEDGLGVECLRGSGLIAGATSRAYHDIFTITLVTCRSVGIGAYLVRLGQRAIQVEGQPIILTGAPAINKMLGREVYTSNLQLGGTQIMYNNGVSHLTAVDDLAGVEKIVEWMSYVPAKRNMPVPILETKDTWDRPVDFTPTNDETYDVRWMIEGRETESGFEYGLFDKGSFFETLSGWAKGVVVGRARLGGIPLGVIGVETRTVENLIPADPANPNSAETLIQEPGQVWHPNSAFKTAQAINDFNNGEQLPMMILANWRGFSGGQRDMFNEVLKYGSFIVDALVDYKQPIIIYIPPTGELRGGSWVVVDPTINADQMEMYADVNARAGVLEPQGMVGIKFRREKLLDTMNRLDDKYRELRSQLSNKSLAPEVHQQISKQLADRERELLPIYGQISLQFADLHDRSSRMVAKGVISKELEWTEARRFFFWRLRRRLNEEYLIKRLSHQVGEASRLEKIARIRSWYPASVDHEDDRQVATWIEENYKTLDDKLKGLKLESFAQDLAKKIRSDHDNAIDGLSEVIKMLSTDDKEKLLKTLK

Diplodia maydis (Dm) = test: Growth inhibition assay of fungal pathogens, Dm; assay type: cell-based; details: Stenocarpella maydis, 48 h, Diplodia maydis; growth inhibition at 48 hours vs 2% DMSO control; read-out: Concentration at 90% Inhibition Dm
Procedure: as §1, §2, §3, §4

C. parapsilosis = test: Antifungal Activity Assay (broth microtiter MIC), C. parapsilosis; assay type: cell-based, Candida parapsilosis; details: Lodderomyces parapsilosis, ATCC22019, 48 h, ATCC 22019, 3 replicates, MIC recorded at 48 h, read-out: MIC, C. parapsilosis ATCC 22019
Summary of the method: as §5

[4] = system: Collectotrichum graminicola (Cg); test: Growth inhibition assay of fungal pathogens, Cg; assay type: cell-based; details: 48 h, Collectotrichum graminicola; growth inhibition at 48 hours vs 2% DMSO control; read-out: Concentration at 90% Inhibition Cg
Procedure: as §1, §2, §3, §4

[5] = mycelial plugs, growth inhibition at 48 hours vs 2% DMSO control, read-out: Concentration at 90% Inhibition Rs

Row | Compound | IC90 [1] [µg/mL] | IC90 [2] [µg/mL] | IC90 [3] [µg/mL] | IC90 (Botrtyis cinerea (Bc)) [µg/mL] | MIC (C. krusei; Table 3b (additional results)) [µg/mL] | IC90 (Rhizoctonia solani (Rs); [5]) [µg/mL] | MIC (C. albicans; Table 3b (additional results)) [µg/mL] | IC50 (human (hACC2); Table 2b, additional results) [nM] | IC90 (Septoria tritici (St)) [µg/mL] | IC50 (fungal (fACC2)) [nM] | IC90 (Diplodia maydis (Dm)) [µg/mL] | MIC (C. parapsilosis; Table 3b (additional results)) [µg/mL] | IC90 [4] [µg/mL] | MIC (C. krusei; Table 3a) [µg/mL] | MIC (C. albicans; Table 3a) [µg/mL] | IC50 (human (hACC2); Table 2a) [nM] | MIC (C. parapsilosis; Table 3a) [µg/mL] | IC90 (Rhizoctonia solani (Rs); read-out: Concentration at 90% Inhibition Rs, Rhizoctonia solani, mycelial plugs, growth inhibition at 48 hours vs 2% DMSO control) [µg/mL] | IC90 (Rhizoctonia solani (Rs); read-out: Concentration at 90% Inhibition Rs, Rhizoctonia solani, mycelial plugs, growth inhibition vs 2% DMSO control at 48 hours) [µg/mL] | IC90 (Rhizoctonia solani (Rs); mycelial plugs, growth inhibition vs 2% DMSO control at 48 hours, read-out: Concentration at 90% Inhibition Rs) [µg/mL]
1 | COc1ccc(Br)cc1[C@H](Cn1c(=O)n(C(C)(C)C(=O)NC(C)C)c(=O)c2c(C)c(-n3nccn3)sc21)OCC(C)(C)C#N [Compound I-224] | 0.4 (≈ 0.583 µM) | 0.08 (≈ 0.117 µM) | > 50 | 0.4 (≈ 0.583 µM) | 0.25 to 1 (≈ 0.364 to 1.46 µM) | > 50 | 0.25 to 1 (≈ 0.364 to 1.46 µM) | 5 to 10 | > 50 | 1 to 5 | 2 (≈ 2.91 µM) | 1.01 to 2 (≈ 1.47 to 2.91 µM) | 2 (≈ 2.91 µM) | – | – | – | – | – | – | –
2 | COc1ccccc1[C@H](Cn1c(=O)n([C@@H](C)C(=O)N(C)C(C)C)c(=O)c2c(C)c(-n3nccn3)sc21)OCCC#N [Compound I-206] | 0.08 (≈ 0.138 µM) | 0.08 (≈ 0.138 µM) | 10 (≈ 17.3 µM) | 2 (≈ 3.45 µM) | 2.01 to 4 (≈ 3.47 to 6.9 µM) | 0.08 (≈ 0.138 µM) | 2.01 to 4 (≈ 3.47 to 6.9 µM) | 1 to 5 | 10 (≈ 17.3 µM) | 0.3 to 1 | 2 (≈ 3.45 µM) | 1.01 to 2 (≈ 1.74 to 3.45 µM) | 2 (≈ 3.45 µM) | – | – | – | – | – | – | –
3 | COc1ccc(F)cc1[C@H](Cn1c(=O)n(C(C)(C)C(=O)O)c(=O)c2c(C)c(-n3nccn3)sc21)OC1CCC(=O)CC1 [Compound I-30, (R)-2-(1-(2-(5-fluoro-2-methoxyphenyl)-2-((4-oxocyclo-hexyl)oxy)ethyl)-5-methyl-2,4-dioxo-6-(2H-1,2,3-triazol-2-yl)-1,4-dihydrothieno[2,3-d]pyrimidin-3(2H)-yl)-2-methylpropanoic acid] | > 50 | 2 (≈ 3.34 µM) | > 50 | 10 (≈ 16.7 µM) | 1.01 to 2 (≈ 1.68 to 3.34 µM) | 10 (≈ 16.7 µM) | 1.01 to 2 (≈ 1.68 to 3.34 µM) | 1 to 5 | > 50 | – | > 50 | 2.01 to 4 (≈ 3.35 to 6.67 µM) | > 50 | 2.1 to 4 (≈ 3.5 to 6.67 µM) | 2.1 to 4 (≈ 3.5 to 6.67 µM) | 1 to 5 | 2.1 to 4 (≈ 3.5 to 6.67 µM) | – | – | –
4 | COc1ccc(F)cc1[C@@H](O)Cn1c(=O)n([C@@H](C)C(=O)N2CC=CC2)c(=O)c2c(C)c(-n3nccn3)sc21 [Compound I-193] | 2 (≈ 3.7 µM) | 2 (≈ 3.7 µM) | > 50 | 10 (≈ 18.5 µM) | 1.01 to 2 (≈ 1.87 to 3.7 µM) | 2 (≈ 3.7 µM) | 1.01 to 2 (≈ 1.87 to 3.7 µM) | 5 to 10 | > 50 | – | > 50 | 1.01 to 2 (≈ 1.87 to 3.7 µM) | 10 (≈ 18.5 µM) | – | – | – | – | – | – | –
5 | COc1ccccc1[C@@H](O)Cn1c(=O)n(C(C)(C)C(=O)N2CCCC2)c(=O)c2c(C)c(-n3nccn3)sc21 [Compound I-189] | 10 (≈ 18.6 µM) | 10 (≈ 18.6 µM) | > 50 | 10 (≈ 18.6 µM) | 1.01 to 2 (≈ 1.88 to 3.71 µM) | 0.08 (≈ 0.149 µM) | 1.01 to 2 (≈ 1.88 to 3.71 µM) | 10 to 40 | > 50 | – | > 50 | 1.01 to 2 (≈ 1.88 to 3.71 µM) | > 50 | – | – | – | – | – | – | –
6 | COc1ccc(F)cc1[C@@H](Cn1c(=O)n(C(C)(C)C(=O)NC(C)C)c(=O)c2c(C)c(-n3nccn3)sc21)OC(C)=O [Compound I-259] | 0.08 (≈ 0.136 µM) | 0.08 (≈ 0.136 µM) | > 50 | 0.4 (≈ 0.682 µM) | – | 0.08 (≈ 0.136 µM) | – | 5 to 10 | > 50 | 1 to 5 | 0.4 (≈ 0.682 µM) | – | 0.4 (≈ 0.682 µM) | – | – | – | – | – | – | –
7 | COc1ccc(F)cc1[C@H](Cn1c(=O)n(C(C)(C)C(=O)NC(C)C)c(=O)c2c(C)c(-n3nccn3)sc21)OCC(C)C [Compound I-10, (R)-2-(1-(2-(5-fluoro-2-methoxyphenyl)-2-isobutoxyethyl)-5-methyl-2,4-dioxo-6-(2H-1,2,3-triazol-2-yl)-1,4-dihydrothieno[2,3-d]pyrimidin-3(2H)-yl)-N-isopropyl-2-methylpropanamide] | – | – | – | – | – | – | – | 10 to 40 | – | – | – | – | – | – | – | 10 to 40 | – | 0.4 (≈ 0.666 µM) | 0.4 (≈ 0.666 µM) | –
8 | COc1ccc(F)cc1[C@H](Cn1c(=O)n(CC(=O)N2CCCC2)c(=O)c2c(C)c(-n3nccn3)sc21)OC(C)C [Compound I-36, (R)-1-(2-(5-fluoro-2-methoxyphenyl)-2-isopropoxyethyl)-5-methyl-3-(2-oxo-2-(pyrrolidin-1-yl)ethyl)-6-(2H-1,2,3-triazol-2-yl)thieno[2,3-d]pyrimidine-2,4(1H,3H)-dione] | – | – | – | – | – | 0.4 (≈ 0.701 µM) | – | 1 to 5 | – | – | – | – | – | – | – | 1 to 5 | – | – | – | 0.4 (≈ 0.701 µM)
